# Assay results: the supplement of paper PMC10307832
# Compound: O=C(Nc1cc(C(F)(F)F)cc(C(F)(F)F)c1)c1cc(Cl)ccc1O [IMD-0354] + COc1cc2c(Oc3ccc(NC(=O)C4(C(=O)Nc5ccc(F)cc5)CC4)cc3F)ccnc2cc1OCCCN1CCOCC1 [Foretinib] (partner 0.25 µM)
# Experiment: relative viability (nuclei count vs DMSO), 5 days (fraction); higher = more cells survive
# Conditions: first compound 4 µM
# In short: (§1)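 Relative viability is defined as nuclei in treated wells over nuclei in vehicle wells. Duplicate plates were run and medians reported. Lung cancer cell lines in 1536-well plates were dosed by pin tool one day after seeding, with one drug or with a fixed anchor-drug dose plus five library-drug doses (not always all listed) in √10 steps, and nuclei were counted after 5 days.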
row,Cell Line,relative viability
1,NCI-H650,0.234

# Compound: O=C(Nc1cc(C(F)(F)F)cc(C(F)(F)F)c1)c1cc(Cl)ccc1O [IMD-0354] + Nc1nc2[nH]cc(CCc3ccc(C(=O)N[C@@H](CCC(=O)O)C(=O)O)cc3)c2c(=O)[nH]1 [Pemetrexed] (partner 0.2 µM)
# Experiment: as above
# Conditions: first compound 0.04 µM
# In short: as §1
row,Cell Line,relative viability
1,NCI-H522,1.35
2,NCI-H1650,0.364
3,NCI-H1993,0.578
4,SK-LU-1,1.11
5,NCI-H838,0.25
6,LCLC-103H,0.518
7,NCI-H520,0.668
8,NCI-H2126,0.74
9,EMC-BAC-2,0.398
10,NCI-H2085,0.954
11,HCC-366,0.18
12,NCI-H1666,0.905
13,NCI-H596,0.546
14,NCI-H1395,0.986
15,NCI-H2087,0.721
16,NCI-H2342,0.814

row,Cell Line,relative viability
1,LK-2,0.284
2,H3255,0.588
3,COR-L23,0.205
4,COR-L 105,1.14
5,LOU-NH91,0.359
6,ChaGo-K-1,0.26
7,NCI-H358,0.174
8,NCI-H2405,1.16
9,HCC-44,0.733
10,SW 900,0.544
11,NCI-H1648,0.653
12,NCI-H661,0.955
13,NCI-H1792,1.01
14,NCI-H1563,0.815
15,NCI-H650,1.05

# Same assay, conditions: first compound 0.1265 µM
row,Cell Line,relative viability
1,NCI-H522,0.895
2,NCI-H1650,0.352
3,NCI-H1993,0.565
4,SK-LU-1,0.777
5,NCI-H838,0.229
6,LCLC-103H,0.491
7,NCI-H520,0.838
8,NCI-H2126,0.722
9,EMC-BAC-2,0.399
10,NCI-H2085,0.846
11,HCC-366,0.181
12,NCI-H1666,1
13,NCI-H596,0.526
14,NCI-H1395,0.81
15,NCI-H2087,0.688
16,NCI-H2342,0.822

row,Cell Line,relative viability
1,LK-2,0.31
2,H3255,0.587
3,COR-L23,0.202
4,COR-L 105,1.23
5,LOU-NH91,0.472
6,ChaGo-K-1,0.259
7,NCI-H358,0.172
8,NCI-H2405,0.965
9,HCC-44,0.692
10,SW 900,0.519
11,NCI-H1648,0.693
12,NCI-H661,0.921
13,NCI-H1792,0.57
14,NCI-H1563,0.9
15,NCI-H650,0.97

# Same assay, conditions: first compound 0.4 µM
row,Cell Line,relative viability
1,NCI-H522,0.91
2,NCI-H1650,0.309
3,NCI-H1993,0.518
4,SK-LU-1,0.44
5,NCI-H838,0.161
6,LCLC-103H,0.446
7,NCI-H520,0.392
8,NCI-H2126,0.569
9,EMC-BAC-2,0.338
10,NCI-H2085,0.644
11,HCC-366,0.0918
12,NCI-H1666,0.708
13,NCI-H596,0.344
14,NCI-H1395,0.616
15,NCI-H2087,0.345
16,NCI-H2342,0.585
17,H3255,0.518
18,COR-L23,0.206
19,COR-L 105,0.802
20,LOU-NH91,0.25
21,ChaGo-K-1,0.269
22,NCI-H358,0.175
23,NCI-H2405,0.49
24,HCC-44,0.595
25,SW 900,0.329
26,NCI-H1648,0.401
27,NCI-H661,0.484
28,NCI-H1792,0.493
29,NCI-H1563,0.669
30,NCI-H650,0.793

# Same assay, conditions: first compound 1.265 µM
row,Cell Line,relative viability
1,NCI-H522,0.62
2,NCI-H1650,0.259
3,NCI-H1993,0.344
4,SK-LU-1,0.225
5,NCI-H838,0.191
6,LCLC-103H,0.317
7,NCI-H520,0.149
8,NCI-H2126,0.37
9,EMC-BAC-2,0.319
10,NCI-H2085,0.294
11,HCC-366,0.0649
12,NCI-H1666,0.832
13,NCI-H596,0.461
14,NCI-H1395,0.334
15,NCI-H2087,0.0911
16,NCI-H2342,0.508

row,Cell Line,relative viability
1,LK-2,0.172
2,H3255,0.426
3,COR-L23,0.182
4,COR-L 105,0.699
5,LOU-NH91,0.206
6,ChaGo-K-1,0.23
7,NCI-H358,0.138
8,NCI-H2405,0.271
9,HCC-44,0.354
10,SW 900,0.182
11,NCI-H1648,0.455
12,NCI-H661,0.331
13,NCI-H1792,0.163
14,NCI-H1563,0.5
15,NCI-H650,0.436

# Same assay, conditions: first compound 4 µM
row,Cell Line,relative viability
1,NCI-H522,0.397
2,NCI-H1650,0.12
3,NCI-H1993,0.412
4,SK-LU-1,0.249
5,NCI-H838,0.167
6,LCLC-103H,0.266
7,NCI-H520,0.139
8,NCI-H2126,0.266
9,EMC-BAC-2,0.306
10,NCI-H2085,0.276
11,HCC-366,0.0246
12,NCI-H1666,0.824
13,NCI-H596,0.396
14,NCI-H1395,0.323
15,NCI-H2087,0.106
16,NCI-H2342,0.408

row,Cell Line,relative viability
1,LK-2,0.111
2,H3255,0.318
3,COR-L23,0.108
4,COR-L 105,0.402
5,LOU-NH91,0.304
6,ChaGo-K-1,0.208
7,NCI-H358,0.126
8,NCI-H2405,0.277
9,HCC-44,0.344
10,SW 900,0.196
11,NCI-H1648,0.277
12,NCI-H661,0.207
13,NCI-H1792,0.152
14,NCI-H1563,0.231
15,NCI-H650,0.169
